US8906925B2, “Pyrido[4,3-B]indoles containing rigid moieties” (Medivation Technologies, Inc., priority 2008, dated 2014)
Where two headings read alike, the source gives them in different places.

Columns and labels:
[1] = target: T1, human recombinant histamine H2 receptor (Homo sapiens, UniProt P25021); assay: Histamine H2 radioligand binding ([125I]Aminopotentidine); conditions: read-out: Histamine Binding (1 μM) H2, percent inhibition of specific binding, 1 μM
T1 construct: expressed in transfected cells; host or cells: Chinese hamster ovary (CHO) K1 cells
Outline: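 Receptor source: human recombinant H2 in CHO-K1 cells, assayed in 50 mM phosphate pH 7.4. Competition against 0.1 nM [125I]aminopotentidine, 120 min, 25 °C; 3 μM tiotidine sets nonspecific binding, filter-bound counts give specific binding.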

[2] = target: human dopamine D2L receptor (Homo sapiens, UniProt P14416); assay: Dopamine D2L radioligand binding ([3H]Spiperone); conditions: compound at 1 μM
Source text: Non-specific binding was estimated in the presence of […] Haloperidol. Receptor proteins were filtered and washed, the filters were then counted to determine [^3H]Spiperone specifically bound. […] Biochemical assay results are presented as the percent inhibition of specific binding in Table 9.

[3] = target: T2, human recombinant serotonin (5-Hydroxytryptamine) 5-HT2A receptor (Homo sapiens, UniProt P28223); assay: Serotonin 5-HT2A radioligand binding ([3H]Ketanserin); conditions: for inhibition at 0.1 µM: read-out: Inhibition of ligand binding, Serotonin 5-HT2A (percent inhibition of specific binding), compound at 0.1 μM; for inhibition at 1 µM: read-out: Inhibition of ligand binding, Serotonin 5-HT2A (percent inhibition of specific binding), compound at 1 μM
T2 construct: expressed in transfected cells; host or cells: Chinese hamster ovary (CHO-K1) cells
Protocol: Compounds of the invention were incubated with 0.5 nM [^3H]Ketanserin for 60 min. at 25° C. Non-specific binding was estimated in the presence of 1 μM Mianserin. Receptor proteins were filtered and washed, the filters were then counted to determine [^3H]Ketanserin specifically bound.

[4] = target: T3, human recombinant serotonin (5-Hydroxytryptamine) 5-HT2C receptor (Homo sapiens, UniProt P28335); assay: Serotonin 5-HT2C radioligand binding ([3H]Mesulergine); conditions: for inhibition at 0.1 µM: compound at 0.1 μM; for inhibition at 0.1 µM / inhibition at 1 µM: read-out: Inhibition of ligand binding, Serotonin 5-HT2C (percent inhibition of specific binding)
T3 construct: expressed in transfected cells; host or cells: Chinese hamster ovary (CHO-K1) cells
T3 sequence (P28335 33-458): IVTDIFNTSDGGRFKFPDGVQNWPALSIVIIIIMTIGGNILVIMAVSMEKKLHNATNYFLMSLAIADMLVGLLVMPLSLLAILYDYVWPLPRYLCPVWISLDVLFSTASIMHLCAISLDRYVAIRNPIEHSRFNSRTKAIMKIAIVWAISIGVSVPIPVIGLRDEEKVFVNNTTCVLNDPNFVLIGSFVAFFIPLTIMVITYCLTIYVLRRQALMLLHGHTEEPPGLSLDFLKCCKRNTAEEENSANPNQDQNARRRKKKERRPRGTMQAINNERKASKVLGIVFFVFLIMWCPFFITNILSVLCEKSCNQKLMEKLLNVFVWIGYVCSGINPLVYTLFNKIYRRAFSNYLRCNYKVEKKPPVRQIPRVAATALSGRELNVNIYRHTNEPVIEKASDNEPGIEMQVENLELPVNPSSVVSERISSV
Outline: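 Compounds tested at 1 μM or lower (1% DMSO vehicle) for displacement of 1 nM [3H]Mesulergine over 60 min at 25° C. Specific binding determined by filtration counting, with 1 μM Mianserin defining non-specific binding; values are percent inhibition.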

[5] = target: T4, human recombinant serotonin (5-Hydroxytryptamine) 5-HT6 receptor (Homo sapiens, UniProt P50406); assay: Serotonin 5-HT6 radioligand binding ([3H]LSD); conditions: read-out: Inhibition of ligand binding, Serotonin 5-HT6 (percent inhibition of specific binding); for inhibition at 0.1 µM: compound at 0.1 μM; for inhibition at 1 µM: compound at 1 μM
T4 construct: expressed in transfected cells; host or cells: human HeLa cells
Protocol: Compounds of the invention were incubated with 1.5 nM [3H]Lysergic acid diethylamide (LSD) for 120 min. at 37° C. […] Receptor proteins were filtered and washed, the filters were then counted to determine [3H]LSD specifically bound. Compounds were screened at 1 μM or lower, using 1% DMSO as vehicle. Biochemical assay results are presented as the percent inhibition of specific binding in Table 10.

[6] = target: human recombinant serotonin (5-Hydroxytryptamine) 5-HT7 receptor (Homo sapiens, UniProt P34969); assay: Serotonin 5-HT7 radioligand binding ([3H]LSD); conditions: for inhibition at 0.1 µM: compound at 0.1 μM; for inhibition at 0.1 µM / inhibition at 1 µM: read-out: Inhibition of ligand binding, Serotonin 5-HT7 (percent inhibition of specific binding)
Source text: Receptor proteins were filtered and washed, the filters were then counted to determine [^3H]LSD specifically bound.

[7] = target: T5, human recombinant serotonin 5-HT1B receptor (Homo sapiens, UniProt P28222); assay: 5-HT1B radioligand binding competition assay ([3H]5-CT, CHO-K1 membranes); conditions: 5 μM, in duplicate, average
T5 construct: expressed in transfected cells; host or cells: CHO-K1 cell line, membrane extracts
Protocol: To determine the binding activity at the human recombinant serotonin 5-HT1B receptor of compounds of the invention, CHO-K1 cell line expressing the human 5-HT1B recombinant receptor was amplified to prepare membranes used for the radioligand binding assay throughout the study. Radioligand binding competition on 5-HT1B was performed by adding successively in the wells of a 96 well plate (Master Block, Greiner, 786201). […] The plate was incubated 60 min at 25° C. in a water bath and then filtered over GF/B filters (Perkin Elmer, 6005177, presoaked in 0.5% PE1 for 2 h at room temperature) with a Filtration unit (Perkin Elmer). The filters were washed 3× with 0.5 mL of ice-cold washing buffer (50 mM Tris pH 7.4). 50 μL Microscint 20 (Packard) was added and the plate was incubated 15 min on an orbital shaker and then counted with a TopCount™ for 1 min/well.
The reference value thus obtained for the test was compared to a historical value obtained from the same receptor and used to validate the experimental session. […] For replicate determinations, the maximum variability tolerated in the test was of +/−20% around the average of the replicates.
Compounds were tested for binding activity in the radioligand binding competition assay on human 5-HT1B receptor, at one concentration […], in duplicate. Dose-response data from test compounds were analyzed with XLfit (IDBS) software using nonlinear regression applied to a sigmoidal dose-response model.
Dose-response data was analyzed with XLfit (IDBS) software using non-linear regression applied to a sigmoidal dose-response model.

[8] = target: histamine receptor H1 (Homo sapiens, UniProt P35367); assay: Histamine H1 radioligand binding ([3H]Pyrilamine); conditions: read-out: Histamine Binding (1 μM) H1, percent inhibition of specific binding, 1 μM
Outline: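 Values are percent inhibition of specific [3H]pyrilamine (1.2 nM) binding with compounds at ≤1 μM (1% DMSO vehicle); 180 min incubation at 25 °C, pH 7.4 Tris buffer, on CHO-expressed human H1 receptor; 1 μM pyrilamine defined nonspecific binding, bound ligand counted after filtration.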

[9] = percent inhibition of specific binding, read-out: Inhibition of ligand binding, Dopamine D2L
[10] = […] [3H]Spiperone, read-out: Inhibition of ligand binding, Dopamine D2L (percent inhibition of specific binding)

T2 sequence (P28223 whole entry): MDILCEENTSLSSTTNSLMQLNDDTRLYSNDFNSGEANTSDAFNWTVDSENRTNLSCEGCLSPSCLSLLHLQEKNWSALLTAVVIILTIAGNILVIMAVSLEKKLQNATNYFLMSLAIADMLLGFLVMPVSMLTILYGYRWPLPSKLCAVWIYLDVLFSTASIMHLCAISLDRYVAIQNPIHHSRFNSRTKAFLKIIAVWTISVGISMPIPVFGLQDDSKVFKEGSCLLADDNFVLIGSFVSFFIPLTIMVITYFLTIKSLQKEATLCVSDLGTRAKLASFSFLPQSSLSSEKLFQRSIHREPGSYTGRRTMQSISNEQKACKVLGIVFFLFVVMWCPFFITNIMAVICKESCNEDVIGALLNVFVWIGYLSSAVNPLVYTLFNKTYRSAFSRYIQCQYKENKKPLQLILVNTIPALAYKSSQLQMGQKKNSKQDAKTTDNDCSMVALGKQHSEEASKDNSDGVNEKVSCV
Chain of histamine receptor H1 (P35367 whole entry): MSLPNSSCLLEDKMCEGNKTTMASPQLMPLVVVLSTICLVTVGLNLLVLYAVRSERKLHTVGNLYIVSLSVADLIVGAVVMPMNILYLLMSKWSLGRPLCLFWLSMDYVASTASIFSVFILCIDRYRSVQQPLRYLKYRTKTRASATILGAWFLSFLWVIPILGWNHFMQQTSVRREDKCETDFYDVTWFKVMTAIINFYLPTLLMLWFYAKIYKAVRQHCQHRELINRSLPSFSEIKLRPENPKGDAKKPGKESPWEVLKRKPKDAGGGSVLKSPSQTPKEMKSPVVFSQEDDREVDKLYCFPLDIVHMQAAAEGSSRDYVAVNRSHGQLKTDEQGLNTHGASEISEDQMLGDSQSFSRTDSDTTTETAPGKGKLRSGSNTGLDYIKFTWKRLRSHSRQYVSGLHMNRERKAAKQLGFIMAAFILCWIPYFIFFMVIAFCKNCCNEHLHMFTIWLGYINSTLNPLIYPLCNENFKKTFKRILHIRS
T4 sequence (P50406 whole entry): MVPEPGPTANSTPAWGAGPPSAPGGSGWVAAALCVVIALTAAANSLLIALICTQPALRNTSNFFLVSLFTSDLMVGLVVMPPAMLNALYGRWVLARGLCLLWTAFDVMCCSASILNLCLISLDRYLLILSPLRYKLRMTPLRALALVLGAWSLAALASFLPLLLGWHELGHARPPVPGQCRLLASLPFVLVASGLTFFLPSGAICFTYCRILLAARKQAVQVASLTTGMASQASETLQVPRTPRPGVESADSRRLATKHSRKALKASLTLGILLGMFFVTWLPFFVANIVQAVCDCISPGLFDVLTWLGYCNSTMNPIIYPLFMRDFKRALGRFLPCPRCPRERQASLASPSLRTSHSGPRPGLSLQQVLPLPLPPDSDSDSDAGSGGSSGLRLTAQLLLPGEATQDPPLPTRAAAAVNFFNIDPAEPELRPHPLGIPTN
Chain of human dopamine D2L receptor (P14416 whole entry): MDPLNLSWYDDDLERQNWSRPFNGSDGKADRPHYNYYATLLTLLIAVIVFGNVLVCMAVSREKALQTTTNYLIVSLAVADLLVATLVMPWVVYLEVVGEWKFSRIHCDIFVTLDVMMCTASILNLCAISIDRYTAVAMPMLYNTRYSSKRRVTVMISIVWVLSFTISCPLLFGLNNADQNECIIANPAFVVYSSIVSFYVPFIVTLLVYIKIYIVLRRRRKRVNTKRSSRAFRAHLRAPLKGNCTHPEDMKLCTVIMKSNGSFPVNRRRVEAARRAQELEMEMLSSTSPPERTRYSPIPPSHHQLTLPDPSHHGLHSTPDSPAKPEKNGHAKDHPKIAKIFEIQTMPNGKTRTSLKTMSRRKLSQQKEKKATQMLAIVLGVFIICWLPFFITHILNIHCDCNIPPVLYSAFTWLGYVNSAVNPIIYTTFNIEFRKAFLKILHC
T5 sequence (P28222 whole entry): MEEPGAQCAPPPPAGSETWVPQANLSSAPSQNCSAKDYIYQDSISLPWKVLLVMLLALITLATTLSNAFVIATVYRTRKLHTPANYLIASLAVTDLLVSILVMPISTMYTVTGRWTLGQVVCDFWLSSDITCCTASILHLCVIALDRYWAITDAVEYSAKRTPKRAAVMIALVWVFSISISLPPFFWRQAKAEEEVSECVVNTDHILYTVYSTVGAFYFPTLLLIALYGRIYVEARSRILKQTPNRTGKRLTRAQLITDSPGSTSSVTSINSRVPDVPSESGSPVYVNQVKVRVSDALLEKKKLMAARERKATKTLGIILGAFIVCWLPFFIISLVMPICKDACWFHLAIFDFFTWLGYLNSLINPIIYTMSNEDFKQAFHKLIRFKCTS
Chain of human recombinant serotonin (5-Hydroxytryptamine) 5-HT7 receptor (P34969 whole entry): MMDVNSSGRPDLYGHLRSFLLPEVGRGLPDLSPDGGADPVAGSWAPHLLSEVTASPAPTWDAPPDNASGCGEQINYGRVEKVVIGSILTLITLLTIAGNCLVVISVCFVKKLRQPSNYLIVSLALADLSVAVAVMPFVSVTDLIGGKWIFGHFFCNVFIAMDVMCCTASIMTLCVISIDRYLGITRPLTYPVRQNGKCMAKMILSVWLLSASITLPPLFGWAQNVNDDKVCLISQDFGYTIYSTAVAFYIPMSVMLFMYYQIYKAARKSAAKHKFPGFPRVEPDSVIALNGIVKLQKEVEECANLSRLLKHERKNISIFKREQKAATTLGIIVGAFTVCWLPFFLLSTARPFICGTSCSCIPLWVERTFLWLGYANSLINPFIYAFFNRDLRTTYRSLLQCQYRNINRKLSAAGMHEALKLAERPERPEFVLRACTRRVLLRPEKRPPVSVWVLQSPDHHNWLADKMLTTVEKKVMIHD
T1 sequence (P25021 whole entry): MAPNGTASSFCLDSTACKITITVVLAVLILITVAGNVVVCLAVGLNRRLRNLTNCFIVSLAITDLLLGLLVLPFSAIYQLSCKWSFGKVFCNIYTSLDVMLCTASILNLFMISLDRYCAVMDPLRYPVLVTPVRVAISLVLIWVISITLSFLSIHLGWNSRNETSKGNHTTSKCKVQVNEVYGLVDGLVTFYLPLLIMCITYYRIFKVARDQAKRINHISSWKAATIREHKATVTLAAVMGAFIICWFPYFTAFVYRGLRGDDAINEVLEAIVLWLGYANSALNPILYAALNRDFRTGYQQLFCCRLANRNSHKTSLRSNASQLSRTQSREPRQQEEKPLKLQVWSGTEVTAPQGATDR

SMILES: C/C(=C\n1c2c(c3ccccc31)CN(C)CC2)c1ccncc1 [Compound 217, (E)-2-methyl-5-(2-(pyridin-4-yl)prop-1-enyl)-2,3,4,5-tetrahydro-1H-pyrido[4,3-b]indole]
- inhibition at 1 µM [1]: 50%
- Inhibition of ligand binding, Dopamine D2L ([2]; percent inhibition of specific binding, 1 µM): 88%
- inhibition at 1 µM [2, 9]: 86%
- inhibition at 0.1 µM [3]: 96%
- inhibition at 1 µM [3]: 98%
- inhibition at 0.1 µM [4]: 62%
- Inhibition of ligand binding, Serotonin 5-HT2C (percent inhibition of specific binding) ([4]; compound at 1 μM, 1 µM): 92%
- inhibition at 1 µM ([4]; compound at 1 μM): 87%
- inhibition at 0.1 µM [5]: 97%
- inhibition at 1 µM [5]: 102%
- inhibition at 0.1 µM [6]: 58%
- Inhibition of ligand binding, Serotonin 5-HT7 (percent inhibition of specific binding) ([6]; compound at 1 μM, 1 µM): 91%
- inhibition at 1 µM ([6]; compound at 1 μM): 73%
- 5-HT1B (5 μM) % Binding relative to bound radioligand [7]: 10%

SMILES: C/C(=C\n1c2c(c3cc(C)ccc31)CN(C)C(C)C2)c1ccc(C)nc1 (stereo not shown) [Compound 259, (E)-2,3,8-trimethyl-5-(2-(6-methylpyridin-3-yl)prop-1-enyl)-2,3,4,5-tetrahydro-1H-pyrido[4,3-b]indole]
- inhibition at 1 µM [8]: 10%
- inhibition at 1 µM [2, 9]: -12%
- inhibition at 0.1 µM [3]: 96%
- inhibition at 0.1 µM [4]: 92%
- inhibition at 0.1 µM [5]: 21%
- inhibition at 0.1 µM [6]: 81%
- 5-HT1B (5 μM) % Binding relative to bound radioligand [7]: 25%

SMILES: C/C(=C/n1c2c(c3cc(C)ccc31)CN(C)CC2)c1ccc(F)cc1F [Compound 274, (Z)-5-(2-(2,4-difluorophenyl)prop-1-enyl)-2,8-dimethyl-2,3,4,5-tetrahydro-1H-pyrido[4,3-b]indole]
- inhibition at 1 µM [8]: 72%
- inhibition at 1 µM [2, 9]: 56%
- inhibition at 0.1 µM [3]: 98%
- inhibition at 0.1 µM [4]: 99%
- inhibition at 0.1 µM [5]: 97%
- inhibition at 0.1 µM [6]: 94%
- 5-HT1B (5 μM) % Binding relative to bound radioligand [7]: 6%

SMILES: C=C(Cn1c2c(c3cccc(F)c31)CN(C)CC2)c1ccc(F)cc1 [Compound No. 353, 6-fluoro-5-(2-(4-fluorophenyl)allyl)-2-methyl-2,3,4,5-tetrahydro-1H-pyrido[4,3-b]indole]
- inhibition at 1 µM [8]: 100%
- inhibition at 1 µM [1]: 93%
- inhibition at 1 µM [2, 10]: 92%
- inhibition at 1 µM [3]: 98%
- inhibition at 1 µM ([4]; compound at 1 μM): 97%
- inhibition at 1 µM [5]: 100%
- inhibition at 1 µM ([6]; compound at 1 μM): 87%

SMILES: C=C(Cn1c2c(c3cccc(Cl)c31)CN(C)CC2)c1ccc(F)cc1 [Compound No. 354, 6-chloro-5-(2-(4-fluorophenyl)allyl)-2-methyl-2,3,4,5-tetrahydro-1H-pyrido[4,3-b]indole]
- inhibition at 1 µM [8]: 86%
- inhibition at 1 µM [1]: 97%
- inhibition at 1 µM [2, 10]: 98%
- inhibition at 1 µM [3]: 100%
- inhibition at 1 µM ([4]; compound at 1 μM): 101%
- inhibition at 1 µM [5]: 103%
- inhibition at 1 µM ([6]; compound at 1 μM): 75%

SMILES: C=C(Cn1c2c(c3cc(C)ccc31)CN(C)CC2)c1ccc(O)cc1 [Compound No. 355, 4-(3-(2,8-dimethyl-3,4-dihydro-1H-pyrido[4,3-b]indol-5(2H)-yl)prop-1-en-2-yl)phenol]
- inhibition at 1 µM [8]: 116%
- inhibition at 1 µM [1]: 93%
- inhibition at 1 µM [2, 10]: 81%
- inhibition at 1 µM [3]: 92%
- inhibition at 1 µM ([4]; compound at 1 μM): 99%
- inhibition at 1 µM [5]: 101%
- inhibition at 1 µM ([6]; compound at 1 μM): 92%

SMILES: C=C(Cn1c2c(c3cc(OC)ccc31)CN(C)CC2)c1ccncc1 [Compound No. 356, 8-methoxy-2-methyl-5-(2-(pyridin-4-yl)allyl)-2,3,4,5-tetrahydro-1H-pyrido[4,3-b]indole]
- inhibition at 1 µM [8]: 70%
- inhibition at 1 µM [1]: 17%
- inhibition at 1 µM [2, 10]: 37%
- inhibition at 1 µM [3]: 81%
- inhibition at 1 µM ([4]; compound at 1 μM): 83%
- inhibition at 1 µM [5]: 90%
- inhibition at 1 µM ([6]; compound at 1 μM): 60%

SMILES: C/C=C(\Cn1c2c(c3cc(C)ccc31)CN(C)CC2)c1ccncc1 [Compound No. 359, (Z)-2,8-dimethyl-5-(2-(pyridin-4-yl)but-2-enyl)-2,3,4,5-tetrahydro-1H-pyrido[4,3-b]indole]
- inhibition at 1 µM [8]: 38%
- inhibition at 1 µM [2, 10]: 27%
- 5-HT1B (5 μM) % Binding relative to bound radioligand [7]: 68%

SMILES: Cc1ccc(C#Cn2c3c(c4cc(Cl)ccc42)CN(C)CC3)cn1 [Compound No. 484, 8-chloro-2-methyl-5-((6-methylpyridin-3-yl)ethynyl)-2,3,4,5-tetrahydro-1H-pyrido[4,3-b]indole]
- inhibition at 1 µM [8]: 6%
- inhibition at 1 µM [1]: 77%
- inhibition at 1 µM [2, 10]: -4%
- inhibition at 1 µM [3]: 98%
- inhibition at 1 µM ([4]; compound at 1 μM): 95%
- inhibition at 1 µM [5]: 34%
- inhibition at 1 µM ([6]; compound at 1 μM): 83%

SMILES: COc1ccc(C#Cn2c3c(c4cc(C)ccc42)CN(C)CC3)cc1F [Compound No. 485, 5-((3-fluoro-4-methoxyphenyl)ethynyl)-2,8-dimethyl-2,3,4,5-tetrahydro-1H-pyrido[4,3-b]indole]
- inhibition at 1 µM [8]: -6%
- inhibition at 1 µM [1]: 97%
- inhibition at 1 µM [2, 10]: 14%
- inhibition at 1 µM [3]: 96%
- inhibition at 1 µM ([4]; compound at 1 μM): 102%
- inhibition at 1 µM [5]: 89%
- inhibition at 1 µM ([6]; compound at 1 μM): 77%
